Columns and labels:
human Gal-3 (hGal-3) = human Gal-3 (hGal-3) (Homo sapiens (Human), UniProt P17931); assay: Competitive binding assay: biotinylated hGal-3 to microplate-adsorbed asialofetuin (ASF); conditions: Activity on hGal-3; binding to ASF-coated plates, 3 hours at 4° C.; mean values
Protocol: Evaluation of Compound Inhibitory Activity (IC50)
The inhibitory activity of compounds is determined in competitive binding assays. This spectrophotometric assay measures the binding of biotinylated human Gal-3 (hGal-3) or human Gal-1 (hGal-1), respectively, to a microplate-adsorbed glycoprotein, asialofetuin (ASF) (Proc Natl Acad Sci USA. 2013 Mar. 26; 110(13):5052-7.). Alternatively, and preferably, a human Gal-1 version in which all six cysteines are substituted by serines may be used.
Briefly, compounds are serially diluted in DMSO (working dilutions). ASF-coated 384 well plates are supplemented with 22.8 μL/well of biotinylated hGal-3 or hGal-1 in assay buffer (i.e. 300-1000 ng/mL biotinylated hGal-3 or hGal-1) to which 1.2 µL of compound working dilutions are added and mixed.
Plates are incubated for 3 hours at 4° C., then washed with cold assay buffer (3×50 uL), incubated for 1 hour with 25 μL/well of a streptavidin-peroxidase solution (diluted in assay buffer to 80 ng/mL) at 4° C., followed by further washing steps with assay buffer (3×50 uL). Finally, 25 µL/well of ABTS substrate is added.
The calculated IC50 values may fluctuate depending on the daily assay performance. Fluctuations of this kind are known to those skilled in the art. IC50 values from several measurements are given as mean values.

human Gal-1 (hGal-1) = human Gal-1 (hGal-1) (Homo sapiens, UniProt P09382); assay: Competitive binding assay: biotinylated hGal-1 to microplate-adsorbed asialofetuin (ASF); conditions: Activities on hGal-1; binding to ASF-coated plates, 3 hours at 4° C.; mean values; read-out: Gal-1 IC50
Protocol: Evaluation of Compound Inhibitory Activity (IC50) The inhibitory activity of compounds is determined in competitive binding assays. […] Alternatively, and preferably, a human Gal-1 version in which all six cysteines are substituted by serines may be used. Briefly, compounds are serially diluted in DMSO (working dilutions). […] Plates are incubated for 3 hours at 4° C., then washed with cold assay buffer (3×50 uL), incubated for 1 hour with 25 μL/well of a streptavidin-peroxidase solution (diluted in assay buffer to 80 ng/mL) at 4° C., followed by further washing steps with assay buffer (3×50 uL). Finally, 25 µL/well of ABTS substrate is added. […] The calculated IC50 values may fluctuate depending on the daily assay performance. Fluctuations of this kind are known to those skilled in the art. IC50 values from several measurements are given as mean values.

Chain of human Gal-1 (hGal-1) (P09382 2-135 limits assumed): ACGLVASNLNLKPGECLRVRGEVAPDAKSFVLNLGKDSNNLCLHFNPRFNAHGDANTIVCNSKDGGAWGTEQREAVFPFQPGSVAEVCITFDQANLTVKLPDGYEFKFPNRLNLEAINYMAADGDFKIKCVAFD
Chain of human Gal-3 (hGal-3) (P17931 whole entry): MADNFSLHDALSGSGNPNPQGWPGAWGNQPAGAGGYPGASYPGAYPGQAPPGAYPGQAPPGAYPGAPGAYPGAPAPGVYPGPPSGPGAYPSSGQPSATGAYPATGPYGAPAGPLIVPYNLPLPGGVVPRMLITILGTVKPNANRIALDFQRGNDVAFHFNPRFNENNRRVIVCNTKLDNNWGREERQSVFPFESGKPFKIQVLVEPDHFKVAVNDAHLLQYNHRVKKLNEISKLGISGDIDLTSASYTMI

SMILES | IC50 (human Gal-3 (hGal-3)) | IC50 (human Gal-1 (hGal-1))
CO[C@@H]1[C@@H](n2cc(-c3cc(F)c(F)c(F)c3)nn2)[C@@H](O)[C@@H](CO)O[C@@H]1CC1=NOC2(CCC(NCC(F)(F)F)CC2)C1 (stereo partly drawn) [Example 2.17, (2R,3R,4S,5R,6R)-2-(hydroxymethyl)-5-methoxy-6-((8-((2,2,2-trifluoroethyl)amino)-1-oxa-2-azaspiro[4.5]dec-2-en-3-yl)methyl)-4-(4-(3,4,5-trifluorophenyl)-1H-1,2,3-triazol-1-yl)tetrahydro-2H-pyran-3-ol] | 210 nM | 1400 nM
CO[C@@H]1[C@@H](n2cc(-c3ccc(F)c(F)c3F)nn2)[C@@H](O)[C@@H](CO)O[C@@H]1CC1=NOC2(CCC(C(C)(C)O)CC2)C1 (stereo partly drawn) [Example 1.48, (2R,3R,4S,5R,6R)-2-(hydroxymethyl)-6-((8-(2-hydroxypropan-2-yl)-1-oxa-2-azaspiro[4.5]dec-2-en-3-yl)methyl)-5-methoxy-4-(4-(2,3,4-trifluorophenyl)-1H-1,2,3-triazol-1-yl)tetrahydro-2H-pyran-3-ol] | 490 nM | 2600 nM
CO[C@@H]1[C@@H](n2cc(-c3ccc(F)c(F)c3F)nn2)[C@@H](O)[C@@H](CO)O[C@@H]1CC1=NO[C@]2(CC[C@@H](C(C)(C)O)CC2)C1 [Example 1.53, (2R,3R,4S,5R,6R)-2-(hydroxymethyl)-6-(((5s,8S)-8-(2-hydroxypropan-2-yl)-1-oxa-2-azaspiro[4.5]dec-2-en-3-yl)methyl)-5-methoxy-4-(4-(2,3,4-trifluorophenyl)-1H-1,2,3-triazol-1-yl)tetrahydro-2H-pyran-3-ol] | 270 nM | 1200 nM
CO[C@@H]1[C@@H](n2cc(-c3cc(F)c(F)c(F)c3)nn2)[C@@H](O)[C@@H](CO)O[C@@H]1CC1=NOC2(CCC(N3CCOCC3)CC2)C1 (stereo partly drawn) [Example 2.19, (2R,3R,4S,5R,6R)-2-(hydroxymethyl)-5-methoxy-6-((8-morpholino-1-oxa-2-azaspiro[4.5]dec-2-en-3-yl)methyl)-4-(4-(3,4,5-trifluorophenyl)-1H-1,2,3-triazol-1-yl)tetrahydro-2H-pyran-3-ol] | 390 nM | 1700 nM
CO[C@@H]1[C@@H](n2cc(-c3cc(F)c(F)c(F)c3)nn2)[C@@H](O)[C@@H](CO)O[C@@H]1CC1=NOC2(CCC(=O)CC2)C1 [Example 1.66, 3-(((2R,3R,4S,5R,6R)-5-hydroxy-6-(hydroxymethyl)-3-methoxy-4-(4-(3,4,5-trifluorophenyl)-1H-1,2,3-triazol-1-yl)tetrahydro-2H-pyran-2-yl)methyl)-1-oxa-2-azaspiro[4.5]dec-2-en-8-one] | 250 nM | 2700 nM
CO[C@@H]1[C@@H](n2cc(-c3cc(F)c(F)c(F)c3)nn2)[C@@H](O)[C@@H](CO)O[C@@H]1CC1=NO[C@]2(CC[C@H](NC(C)C)CC2)C1 [Example 2.12, (2R,3R,4S,5R,6R)-2-(hydroxymethyl)-6-(((5r,8R)-8-(isopropylamino)-1-oxa-2-azaspiro[4.5]dec-2-en-3-yl)methyl)-5-methoxy-4-(4-(3,4,5-trifluorophenyl)-1H-1,2,3-triazol-1-yl)tetrahydro-2H-pyran-3-ol] | 220 nM | 2400 nM
CO[C@@H]1[C@@H](n2cc(-c3cc(F)c(F)c(F)c3)nn2)[C@@H](O)[C@@H](CO)O[C@@H]1CC1=NO[C@]2(CC[C@@H](C(C)C)CC2)C1 [Example 1.28, (2R,3R,4S,5R,6R)-2-(hydroxymethyl)-6-(((5s,8S)-8-isopropyl-1-oxa-2-azaspiro[4.5]dec-2-en-3-yl)methyl)-5-methoxy-4-(4-(3,4,5-trifluorophenyl)-1H-1,2,3-triazol-1-yl)tetrahydro-2H-pyran-3-ol] | 2000 nM | 6900 nM
CCC(CC)NC1CCC2(CC1)CC(C[C@H]1O[C@H](CO)[C@H](O)[C@H](n3cc(-c4cc(F)c(F)c(F)c4)nn3)[C@H]1OC)=NO2 (stereo partly drawn) [Example 2.14, (2R,3R,4S,5R,6R)-2-(hydroxymethyl)-5-methoxy-6-((8-(pentan-3-ylamino)-1-oxa-2-azaspiro[4.5]dec-2-en-3-yl)methyl)-4-(4-(3,4,5-trifluorophenyl)-1H-1,2,3-triazol-1-yl)tetrahydro-2H-pyran-3-ol] | 390 nM | 2600 nM
CO[C@@H]1[C@@H](n2cc(-c3cc(F)c(F)c(F)c3)nn2)[C@@H](O)[C@@H](CO)O[C@@H]1CC1=NOC2(CCC2)C1 [Example 1.10, (2R,3R,4S,5R,6R)-6-((5-oxa-6-azaspiro[3.4]oct-6-en-7-yl)methyl)-2-(hydroxymethyl)-5-methoxy-4-(4-(3,4,5-trifluorophenyl)-1H-1,2,3-triazol-1-yl)tetrahydro-2H-pyran-3-ol] | 620 nM | 2200 nM
CO[C@@H]1[C@@H](n2cc(-c3cc(F)c(C)cc3F)nn2)[C@@H](O)[C@@H](CO)O[C@@H]1CC1=NOC2(CCCCC2)C1 [Example 1.47, (2R,3R,4S,5R,6R)-6-((1-oxa-2-azaspiro[4.5]dec-2-en-3-yl)methyl)-4-(4-(2,5-difluoro-4-methylphenyl)-1H-1,2,3-triazol-1-yl)-2-(hydroxymethyl)-5-methoxytetrahydro-2H-pyran-3-ol] | 430 nM | 2200 nM
CO[C@@H]1[C@@H](n2cc(-c3cc(F)c(F)c(F)c3)nn2)[C@@H](O)[C@@H](CO)O[C@@H]1CC1=NOC2(CCC(=NO)CC2)C1 (stereo partly drawn) [Example 2.18, 3-(((2R,3R,4S,5R,6R)-5-hydroxy-6-(hydroxymethyl)-3-methoxy-4-(4-(3,4,5-trifluorophenyl)-1H-1,2,3-triazol-1-yl)tetrahydro-2H-pyran-2-yl)methyl)-1-oxa-2-azaspiro[4.5]dec-2-en-8-one oxime] | 320 nM | 2900 nM

Stronger by IC50 (human Gal-3 (hGal-3)), values ahead:

IC50 (human Gal-3 (hGal-3)) | IC50 (human Gal-1 (hGal-1)) | SMILES
180 nM | 10300 nM | CO[C@@H]1[C@@H](n2cc(-c3cc(F)c(Cl)c(F)c3)nn2)[C@@H](O)[C@@H](CO)O[C@@H]1CC1=NOC2(CCCCC2)C1 [Example 1.18, (2R,3R,4S,5R,6R)-6-((1-oxa-2-azaspiro[4.5]dec-2-en-3-yl)methyl)-4-(4-(4-chloro-3,5-difluorophenyl)-1H-1,2,3-triazol-1-yl)-2-(hydroxymethyl)-5-methoxytetrahydro-2H-pyran-3-ol]
180 nM | 3400 nM | CO[C@@H]1[C@@H](n2cc(-c3ccc(C)c(F)c3F)nn2)[C@@H](O)[C@@H](CO)O[C@@H]1CC1=NO[C@]2(CC[C@@H](C(C)(C)O)CC2)C1 [Example 1.63, (2R,3R,4S,5R,6R)-4-(4-(2,3-difluoro-4-methylphenyl)-1H-1,2,3-triazol-1-yl)-2-(hydroxymethyl)-6-(((5s,8S)-8-(2-hydroxypropan-2-yl)-1-oxa-2-azaspiro[4.5]dec-2-en-3-yl)methyl)-5-methoxytetrahydro-2H-pyran-3-ol]
81 nM | 1300 nM | CO[C@@H]1[C@@H](n2cc(-c3ccc(C)c(F)c3F)nn2)[C@@H](O)[C@@H](CO)O[C@@H]1CN1C=NC2(CCCCC2)C1 [Example 4.04, (2R,3R,4S,5R,6R)-6-((1,3-diazaspiro[4.5]dec-1-en-3-yl)methyl)-4-(4-(2,3-difluoro-4-methylphenyl)-1H-1,2,3-triazol-1-yl)-2-(hydroxymethyl)-5-methoxytetrahydro-2H-pyran-3-ol]
110 nM | 2700 nM | CO[C@@H]1[C@@H](n2cc(-c3ccc(C)c(F)c3F)nn2)[C@@H](O)[C@@H](CO)O[C@@H]1CC1=NOC2(CCNC(=O)CC2)C1 (mixture of isomers) [Example 1.76]
110 nM | 6500 nM | NC(=O)O[C@@H]1[C@@H](n2cc(-c3cc(F)c(F)c(F)c3)nn2)[C@@H](O)[C@@H](CO)O[C@@H]1CC1=NOC2(CCCCC2)C1 [Example 1.73, (2R,3R,4S,5R,6R)-2-((1-oxa-2-azaspiro[4.5]dec-2-en-3-yl)methyl)-5-hydroxy-6-(hydroxymethyl)-4-(4-(3,4,5-trifluorophenyl)-1H-1,2,3-triazol-1-yl)tetrahydro-2H-pyran-3-yl carbamate]
80 nM | 6700 nM | Cc1ccc(-c2cn([C@H]3[C@@H](O)[C@@H](CO)O[C@H](CC4=NOC5(CCOCC5)C4)[C@@H]3OCC(=O)O)nn2)c(F)c1F [Example 2.24, 2-(((2R,3R,4S,5R,6R)-2-((1,8-dioxa-2-azaspiro[4.5]dec-2-en-3-yl)methyl)-4-(4-(2,3-difluoro-4-methylphenyl)-1H-1,2,3-triazol-1-yl)-5-hydroxy-6-(hydroxymethyl)tetrahydro-2H-pyran-3-yl)oxy)acetic acid]
